In the NIST ThermoML archive (doi:10.1016/j.tca.2005.03.009):

Assay: excess molar enthalpy (molar enthalpy of mixing); xn = mol fraction of the nth substance listed
Details: 298.15 K, 10000 kPa, Liquid, Flow calorimetry

CCC(C)=O [butanone] + CCOC(C)=O
Details	excess molar enthalpy [kcal/mol]
x2 = 0.047	0.0711
x2 = 0.082	0.119
x2 = 0.118	0.165
x2 = 0.153	0.201
x2 = 0.189	0.24
x2 = 0.225	0.271
x2 = 0.262	0.301
x2 = 0.298	0.323
x2 = 0.335	0.346
x2 = 0.371	0.362
x2 = 0.408	0.378
x2 = 0.446	0.389
x2 = 0.483	0.4
x2 = 0.52	0.405
x2 = 0.558	0.403
x2 = 0.596	0.401
x2 = 0.634	0.387
x2 = 0.673	0.374
x2 = 0.711	0.354
x2 = 0.75	0.33
x2 = 0.789	0.296
x2 = 0.828	0.261
x2 = 0.867	0.216
x2 = 0.907	0.163
x2 = 0.947	0.103
x2 = 0.96	0.0773
x2 = 0.974	0.0518

CCOC(C)=O [ethyl acetate] + CC(C)O
Details	excess molar enthalpy [kcal/mol]
x1 = 0.039	0.065
x1 = 0.07	0.114
x1 = 0.1	0.155
x1 = 0.132	0.192
x1 = 0.163	0.228
x1 = 0.196	0.259
x1 = 0.229	0.289
x1 = 0.262	0.313
x1 = 0.296	0.336
x1 = 0.331	0.356
x1 = 0.366	0.372
x1 = 0.402	0.387
x1 = 0.439	0.395
x1 = 0.476	0.404
x1 = 0.514	0.409
x1 = 0.553	0.406
x1 = 0.592	0.402
x1 = 0.632	0.39
x1 = 0.673	0.374
x1 = 0.715	0.351
x1 = 0.758	0.321
x1 = 0.801	0.283
x1 = 0.845	0.239
x1 = 0.891	0.182
x1 = 0.937	0.115
x1 = 0.952	0.0903
x1 = 0.969	0.0607

CCOC(C)=O [ethyl acetate] + CCCO
Details	excess molar enthalpy [kcal/mol]
x1 = 0.039	0.0599
x1 = 0.068	0.0949
x1 = 0.098	0.129
x1 = 0.129	0.161
x1 = 0.16	0.19
x1 = 0.192	0.22
x1 = 0.225	0.243
x1 = 0.258	0.268
x1 = 0.291	0.288
x1 = 0.326	0.306
x1 = 0.361	0.326
x1 = 0.396	0.338
x1 = 0.433	0.349
x1 = 0.47	0.355
x1 = 0.508	0.361
x1 = 0.547	0.362
x1 = 0.586	0.359
x1 = 0.627	0.35
x1 = 0.668	0.339
x1 = 0.71	0.321
x1 = 0.753	0.296
x1 = 0.797	0.265
x1 = 0.842	0.223
x1 = 0.888	0.173
x1 = 0.935	0.109
x1 = 0.951	0.0839
x1 = 0.968	0.0573

CCOC(C)=O [ethyl acetate] + CCO
Details	excess molar enthalpy [kcal/mol]
x1 = 0.03	0.0337
x1 = 0.054	0.0591
x1 = 0.078	0.0875
x1 = 0.104	0.112
x1 = 0.13	0.135
x1 = 0.157	0.158
x1 = 0.184	0.18
x1 = 0.213	0.202
x1 = 0.243	0.223
x1 = 0.274	0.241
x1 = 0.306	0.259
x1 = 0.339	0.274
x1 = 0.373	0.288
x1 = 0.409	0.299
x1 = 0.446	0.31
x1 = 0.485	0.317
x1 = 0.525	0.32
x1 = 0.567	0.318
x1 = 0.611	0.313
x1 = 0.657	0.301
x1 = 0.705	0.285
x1 = 0.754	0.26
x1 = 0.807	0.226
x1 = 0.861	0.182
x1 = 0.919	0.122
x1 = 0.939	0.0955
x1 = 0.96	0.0656

CCOC(C)=O [ethyl acetate] + CO
Details	excess molar enthalpy [kcal/mol]
x1 = 0.057	0.0436
x1 = 0.086	0.0651
x1 = 0.113	0.0798
x1 = 0.188	0.125
x1 = 0.257	0.163
x1 = 0.319	0.193
x1 = 0.377	0.214
x1 = 0.43	0.231
x1 = 0.478	0.238
x1 = 0.524	0.242
x1 = 0.566	0.241
x1 = 0.605	0.236
x1 = 0.641	0.234
x1 = 0.675	0.226
x1 = 0.707	0.218
x1 = 0.738	0.208
x1 = 0.766	0.196
x1 = 0.793	0.183
x1 = 0.818	0.17
x1 = 0.842	0.156
x1 = 0.864	0.14
x1 = 0.886	0.124
x1 = 0.906	0.107
x1 = 0.926	0.0879
x1 = 0.944	0.068
x1 = 0.962	0.0478
x1 = 0.979	0.0253
